Results: ChEMBL document CHEMBL1123607, “Synthesis of potential anticancer agents: imidazo[4,5-c]pyridines and imidazo[4,5-b]pyridines” (J Med Chem, 1987)

Key:
L1210 [1] = experiment: Mitotic index (MI); assay type: functional, Mus musculus
L1210 [2] = experiment: Percent increase in life span at 40 mg/kg on a single dose schedule against L1210 leukemia; assay type: functional; conditions: Mus musculus
L1210 [3] = experiment: Inhibition against the proliferation of L1210 leukemia; assay type: functional, cell-based; conditions: Mus musculus
[4] = Cytotoxicity activity against the KB cell culture at less than 10 uM; assay type: functional; conditions: Homo sapiens, read-out: ED50 (the source's name)

SMILES	MI (L1210 [1]) [µM]	ILS at 40 mg/kg (L1210 [2]) [%]	IC50 (L1210 [3]) [µM]	EC50 [4] [µM]
CCOC(=O)Nc1cc(NC(c2ccccc2)c2ccccc2)c2[nH]cnc2n1	1.15	59	0.37	–
CCOC(=O)Nc1cc(Nc2ccccc2)c2[nH]cnc2n1	–	–	–	9.5
